Data as given in ChEMBL document CHEMBL3885881, “DrugMatrix”.

Species on record: Rattus norvegicus
Test: DrugMatrix - Regimen: Daily Repeat
Assay type: toxicity, organism-based, Sprague-Dawley
Parameters: regimen Daily Repeat, gender Male, age 6-8 weeks
Settings: in vivo, po, 1200 mg/kg, route oral GAVAGE, dose level High, […]; for ABSOLUTE BASOPHIL / ABSOLUTE EOSINOPHIL / ABSOLUTE LYMPHOCYTE / ABSOLUTE MONOCYTE / ABSOLUTE SEGMENTED NEUTROPHIL / BASOPHIL / EOSINOPHIL / ERYTHROCYTE COUNT / HEMATOCRIT / HEMOGLOBIN / LEUKOCYTE COUNT / LYMPHOCYTE / MEAN CORPUSCULAR HEMOGLOBIN / MEAN CORPUSCULAR HEMOGLOBIN CONCENTRATION / MEAN CORPUSCULAR VOLUME / MONOCYTE / NEUTROPHIL / NUCLEATED RED BLOOD CELLS / PLATELET COUNT: tissue Blood; for ALANINE AMINOTRANSFERASE / ALBUMIN / ALKALINE PHOSPHATASE / ASPARTATE AMINOTRANSFERASE / BLOOD UREA NITROGEN / CARBON DIOXIDE / CHLORIDE / CHOLESTEROL / CREATINE PHOSPHOKINASE / CREATININE / GLUCOSE / LACTATE DEHYDROGENASE / LIPASE / PHOSPHORUS / POTASSIUM / SODIUM / TOTAL BILIRUBIN / TOTAL PROTEIN / URIC ACID: tissue Plasma

## COC(=O)Nc1nc2cc(C(=O)c3ccc(F)cc3)ccc2[nH]1 [FLUBENDAZOLE]
72 h, time 3 day
  ABSOLUTE BASOPHIL: 0 CELLS/uL
  ABSOLUTE EOSINOPHIL: 0 CELLS/uL
  ABSOLUTE LYMPHOCYTE: 12475.33 CELLS/uL
  ABSOLUTE MONOCYTE: 43.67 CELLS/uL
  ABSOLUTE SEGMENTED NEUTROPHIL: 1014.33 CELLS/uL
  BASOPHIL: 0%
  EOSINOPHIL: 0%
  ERYTHROCYTE COUNT: 5.28 x10E6/uL
  HEMATOCRIT: 33.83%
  HEMOGLOBIN: 13.6 G/DL
  LEUKOCYTE COUNT: 13.53 x10E3/uL
  LYMPHOCYTE: 92%
  MEAN CORPUSCULAR HEMOGLOBIN: 25.87 pg
  MEAN CORPUSCULAR HEMOGLOBIN CONCENTRATION: 40.23 G/DL
  MEAN CORPUSCULAR VOLUME: 64.27 fL
  MONOCYTE: 0.33%
  NEUTROPHIL: 7.67%
  NUCLEATED RED BLOOD CELLS: 0.33 /100WBC
  PLATELET COUNT: 1168 x10E3/uL
  ALANINE AMINOTRANSFERASE: 71.67 u/L
  ALBUMIN: 4.33 G/DL
  ALKALINE PHOSPHATASE: 451.33 u/L
  ASPARTATE AMINOTRANSFERASE: 104.67 u/L
  BLOOD UREA NITROGEN: 12 mg/dL
  CARBON DIOXIDE: 29.33 mmol/L
  CHLORIDE: 100.67 MEQ/L
  CHOLESTEROL: 60.33 mg/dL
  CREATINE PHOSPHOKINASE: 400 u/L
  CREATININE: 0.19 mg/dL
  GLUCOSE: 163.67 mg/dL
  LACTATE DEHYDROGENASE: 208.67 u/L
  LIPASE: 9.67 u/L
  PHOSPHORUS: 12.3 mg/dL
  POTASSIUM: 6.63 MEQ/L
  SODIUM: 146.5 MEQ/L
  TOTAL BILIRUBIN: 0.17 mg/dL
  TOTAL PROTEIN: 5.7 G/DL
  URIC ACID: 1.9 mg/dL
120 h, time 5 day
  ABSOLUTE BASOPHIL: 0 CELLS/uL
  ABSOLUTE EOSINOPHIL: 0 CELLS/uL
  ABSOLUTE LYMPHOCYTE: 14800.33 CELLS/uL
  ABSOLUTE MONOCYTE: 0 CELLS/uL
  ABSOLUTE SEGMENTED NEUTROPHIL: 966.33 CELLS/uL
  BASOPHIL: 0%
  EOSINOPHIL: 0%
  ERYTHROCYTE COUNT: 5.99 x10E6/uL
  HEMATOCRIT: 36.1%
  HEMOGLOBIN: 14.47 G/DL
  LEUKOCYTE COUNT: 15.77 x10E3/uL
  LYMPHOCYTE: 93.67%
  MEAN CORPUSCULAR HEMOGLOBIN: 24.2 pg
  MEAN CORPUSCULAR HEMOGLOBIN CONCENTRATION: 40.07 G/DL
  MEAN CORPUSCULAR VOLUME: 60.33 fL
  MONOCYTE: 0%
  NEUTROPHIL: 6.33%
  NUCLEATED RED BLOOD CELLS: 0 /100WBC
  PLATELET COUNT: 1290.67 x10E3/uL
  ALANINE AMINOTRANSFERASE: 58.33 u/L
  ALBUMIN: 4.4 G/DL
  ALKALINE PHOSPHATASE: 432 u/L
  ASPARTATE AMINOTRANSFERASE: 93.33 u/L
  BLOOD UREA NITROGEN: 12.33 mg/dL
  CARBON DIOXIDE: 21.67 mmol/L
  CHLORIDE: 103.33 MEQ/L
  CHOLESTEROL: 77.67 mg/dL
  CREATINE PHOSPHOKINASE: 239.67 u/L
  CREATININE: 0.28 mg/dL
  GLUCOSE: 161 mg/dL
  LACTATE DEHYDROGENASE: 157.67 u/L
  LIPASE: 10 u/L
  PHOSPHORUS: 11.27 mg/dL
  POTASSIUM: 6.7 MEQ/L
  SODIUM: 144.17 MEQ/L
  TOTAL BILIRUBIN: 0.13 mg/dL
  TOTAL PROTEIN: 6.23 G/DL
  URIC ACID: 1.93 mg/dL
